Experimental data published in patent publication US20150087627A1, “COMBINATION OF KINASE INHIBITORS AND USES THEREOF” (Intellikine LLC, priority 2011, published 2015).
Counter-ions that a name gives are not always drawn. Like-named read-outs stand apart in the source and are kept apart here. *1 amine or outer side, *2 acyl side, *3 side chain or, on linkers, in order; H or OH if unused. Where a SMILES comes first, the peptide text is derived from it. Bridges are numbered along the chain shown (N, C = ends). Roman numbers before positions name the chains, in order. [ ]: non-standard residue; d: D form. Actinocin(9to1) = Cc1c2oc3c(C)ccc(C(=O)[*:1])c3nc-2c(C(=O)[*:2])c(N)c1=O; NMeV = CN[C@H](C(=O)O)C(C)C; Sar = CNCC(=O)O

Columns and labels:
[1] = clinical use of the marketed drug; cited from earlier work
PI3K γ (p110γ) = biological target: T1, PI3K γ (p110γ) (Homo sapiens, UniProt P48736); test: PI 3-Kinase (human) HTRF assay, PI3K γ; format: biochemical; details: read-out: PI3K γ IC50
T1 construct: purchased Upstate / Millipore Corporation

PI3K δ = biological target: T2, PI3K δ (Homo sapiens, UniProt O00329); test: PI 3-Kinase (human) HTRF assay, PI3K δ; format: biochemical; details: read-out: PI3K δ IC50
T2 construct: purchased Upstate / Millipore Corporation

PI3K β (p110β/p85α) = biological target: T3, PI3K β (p110β/p85α) (Homo sapiens, UniProt P42338); test: PI 3-Kinase (human) HTRF assay, PI3K β; format: biochemical; details: read-out: PI3K β IC50
T3 construct: purchased Upstate / Millipore Corporation

mTOR = biological target: T4, mTOR (Homo sapiens, UniProt P42345); test: mTOR kinase inhibition assay (radiometric or LanthaScreen TR-FRET); format: biochemical; details: read-out: mTORC IC50
T4 construct: purchased Invitrogen
Description: The cross-activity or lack thereof of one or more compounds of the present invention against mTor can be measured according to any procedures known in the art or methods disclosed below.
The compounds described herein can be tested against recombinant mTOR (Invitrogen) in an assay containing 50 mM HEPES, pH 7.5, 1 mM EGTA, 10 mM MgCl2, 2.5 mM, 0.01% Tween, 10 μM ATP (2.5 μCi of μ-32P-ATP), and 3 μg/mL BSA. Rat recombinant PHAS-1/4EBP1 (Calbiochem; 2 mg/mL) is used as a substrate. Reactions are terminated by spotting onto nitrocellulose, which is washed with 1M NaCl/1% phosphoric acid (approximately 6 times, 5-10 minutes each). Sheets are dried and the transferred radioactivity quantitated by phosphorimaging.
For instance, one can use Invitrogen's LanthaScreen™ Kinase assay to test the inhibitors of mTOR disclosed herein. This assay is a time resolved FRET platform that measures the phosphorylation of GFP labeled 4EBP1 by mTOR kinase. The kinase reaction is performed in a white 384 well microtiter plate. The total reaction volume is 20 ul per well and the reaction buffer composition is 50 mM HEPES pH7.5, 0.01% Polysorbate 20, 1 mM EGTA, 10 mM MnCl2, and 2 mM DTT. In the first step, each well receives 2 ul of test compound in 20% dimethylsulphoxide resulting in a 2% DMSO final concentration. […] The plate is sealed and incubated for 1 hour at room temperature. […] The plate is sealed, incubated for 1 hour at room temperature, and then read on a plate reader set up for LanthaScreen™ TR-FRET. Data is analyzed and IC50s are generated using GraphPad Prism 5.

PI3K α (p110α/p85α) = biological target: T5, PI3K α (p110α/p85α) (Homo sapiens, UniProt P42336); test: PI 3-Kinase (human) HTRF assay, PI3K α; format: biochemical; details: read-out: PI3K α IC50
T5 construct: purchased Upstate / Millipore Corporation
T5 sequence (P42336 whole entry): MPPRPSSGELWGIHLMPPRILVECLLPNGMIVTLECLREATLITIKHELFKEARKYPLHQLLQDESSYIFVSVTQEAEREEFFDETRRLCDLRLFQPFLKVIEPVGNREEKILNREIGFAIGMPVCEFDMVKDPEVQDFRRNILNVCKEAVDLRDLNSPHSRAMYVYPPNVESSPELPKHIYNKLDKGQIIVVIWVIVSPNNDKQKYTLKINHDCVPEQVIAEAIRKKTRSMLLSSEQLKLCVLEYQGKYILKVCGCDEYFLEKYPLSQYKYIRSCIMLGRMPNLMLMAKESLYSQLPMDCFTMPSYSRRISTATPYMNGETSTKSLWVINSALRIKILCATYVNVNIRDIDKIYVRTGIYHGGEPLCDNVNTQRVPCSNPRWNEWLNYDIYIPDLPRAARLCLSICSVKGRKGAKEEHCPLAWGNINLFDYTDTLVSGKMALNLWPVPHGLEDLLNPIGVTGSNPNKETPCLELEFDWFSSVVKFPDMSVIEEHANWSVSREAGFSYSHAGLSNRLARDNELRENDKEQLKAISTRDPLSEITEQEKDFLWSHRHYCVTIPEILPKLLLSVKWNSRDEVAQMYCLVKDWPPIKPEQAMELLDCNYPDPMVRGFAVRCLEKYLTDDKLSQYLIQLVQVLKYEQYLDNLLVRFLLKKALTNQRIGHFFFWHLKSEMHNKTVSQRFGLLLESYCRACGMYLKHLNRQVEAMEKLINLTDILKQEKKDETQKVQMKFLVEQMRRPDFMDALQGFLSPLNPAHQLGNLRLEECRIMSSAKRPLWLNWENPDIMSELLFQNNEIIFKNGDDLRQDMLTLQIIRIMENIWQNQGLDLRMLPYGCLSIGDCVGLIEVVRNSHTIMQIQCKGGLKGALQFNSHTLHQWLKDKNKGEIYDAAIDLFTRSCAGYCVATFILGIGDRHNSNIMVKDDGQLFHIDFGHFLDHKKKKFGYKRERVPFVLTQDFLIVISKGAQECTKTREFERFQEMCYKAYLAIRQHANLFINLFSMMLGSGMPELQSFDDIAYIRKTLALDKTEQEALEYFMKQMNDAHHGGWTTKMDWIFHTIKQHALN
T5 sequence (P27986 whole entry partner): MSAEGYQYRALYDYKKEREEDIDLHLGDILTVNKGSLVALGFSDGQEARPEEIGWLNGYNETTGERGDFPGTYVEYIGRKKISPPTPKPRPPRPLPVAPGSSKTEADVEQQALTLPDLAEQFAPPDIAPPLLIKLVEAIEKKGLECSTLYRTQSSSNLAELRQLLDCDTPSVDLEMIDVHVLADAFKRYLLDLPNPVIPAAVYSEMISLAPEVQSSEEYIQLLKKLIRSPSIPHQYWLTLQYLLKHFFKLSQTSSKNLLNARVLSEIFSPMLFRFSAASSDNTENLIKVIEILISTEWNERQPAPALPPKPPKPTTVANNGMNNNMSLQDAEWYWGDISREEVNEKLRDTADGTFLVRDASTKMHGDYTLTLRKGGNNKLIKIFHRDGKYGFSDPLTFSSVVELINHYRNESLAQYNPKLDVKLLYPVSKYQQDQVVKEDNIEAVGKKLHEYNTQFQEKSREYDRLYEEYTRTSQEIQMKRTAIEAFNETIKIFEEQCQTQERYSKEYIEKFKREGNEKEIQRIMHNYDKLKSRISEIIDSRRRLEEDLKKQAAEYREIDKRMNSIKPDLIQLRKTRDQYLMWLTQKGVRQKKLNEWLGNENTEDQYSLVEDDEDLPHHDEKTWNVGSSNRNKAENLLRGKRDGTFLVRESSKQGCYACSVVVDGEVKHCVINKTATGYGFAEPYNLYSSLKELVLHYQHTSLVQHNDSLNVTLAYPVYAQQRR

T2 sequence (O00329 whole entry): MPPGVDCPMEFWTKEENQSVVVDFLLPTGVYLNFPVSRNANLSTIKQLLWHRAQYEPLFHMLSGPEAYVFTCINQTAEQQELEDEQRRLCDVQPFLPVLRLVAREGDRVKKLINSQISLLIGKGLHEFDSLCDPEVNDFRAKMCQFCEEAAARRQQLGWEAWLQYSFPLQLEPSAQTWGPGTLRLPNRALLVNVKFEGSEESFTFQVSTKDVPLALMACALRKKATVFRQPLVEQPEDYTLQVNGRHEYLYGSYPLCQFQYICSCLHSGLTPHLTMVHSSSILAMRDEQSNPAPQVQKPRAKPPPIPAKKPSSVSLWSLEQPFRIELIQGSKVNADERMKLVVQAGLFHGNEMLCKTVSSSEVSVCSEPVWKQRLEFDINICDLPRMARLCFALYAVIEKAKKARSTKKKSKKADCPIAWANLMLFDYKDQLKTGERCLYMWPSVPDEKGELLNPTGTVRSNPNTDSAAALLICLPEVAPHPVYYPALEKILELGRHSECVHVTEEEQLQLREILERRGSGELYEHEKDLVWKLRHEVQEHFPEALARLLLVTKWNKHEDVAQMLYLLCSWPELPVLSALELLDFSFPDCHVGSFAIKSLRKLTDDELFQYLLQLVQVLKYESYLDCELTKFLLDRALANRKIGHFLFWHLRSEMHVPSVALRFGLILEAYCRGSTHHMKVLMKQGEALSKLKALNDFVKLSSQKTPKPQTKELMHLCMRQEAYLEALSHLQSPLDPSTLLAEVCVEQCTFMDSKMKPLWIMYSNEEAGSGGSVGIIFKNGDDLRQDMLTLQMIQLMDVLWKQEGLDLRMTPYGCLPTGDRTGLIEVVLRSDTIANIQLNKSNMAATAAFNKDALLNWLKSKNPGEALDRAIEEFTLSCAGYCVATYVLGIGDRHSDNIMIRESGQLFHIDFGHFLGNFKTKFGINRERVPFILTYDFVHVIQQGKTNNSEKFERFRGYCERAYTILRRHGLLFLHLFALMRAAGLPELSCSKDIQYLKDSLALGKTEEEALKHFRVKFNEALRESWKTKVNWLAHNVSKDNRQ
T2 sequence (P27986 whole entry partner): as the sequence (P27986 whole entry partner) above
T4 sequence (P42345 1360-2549 limits assumed): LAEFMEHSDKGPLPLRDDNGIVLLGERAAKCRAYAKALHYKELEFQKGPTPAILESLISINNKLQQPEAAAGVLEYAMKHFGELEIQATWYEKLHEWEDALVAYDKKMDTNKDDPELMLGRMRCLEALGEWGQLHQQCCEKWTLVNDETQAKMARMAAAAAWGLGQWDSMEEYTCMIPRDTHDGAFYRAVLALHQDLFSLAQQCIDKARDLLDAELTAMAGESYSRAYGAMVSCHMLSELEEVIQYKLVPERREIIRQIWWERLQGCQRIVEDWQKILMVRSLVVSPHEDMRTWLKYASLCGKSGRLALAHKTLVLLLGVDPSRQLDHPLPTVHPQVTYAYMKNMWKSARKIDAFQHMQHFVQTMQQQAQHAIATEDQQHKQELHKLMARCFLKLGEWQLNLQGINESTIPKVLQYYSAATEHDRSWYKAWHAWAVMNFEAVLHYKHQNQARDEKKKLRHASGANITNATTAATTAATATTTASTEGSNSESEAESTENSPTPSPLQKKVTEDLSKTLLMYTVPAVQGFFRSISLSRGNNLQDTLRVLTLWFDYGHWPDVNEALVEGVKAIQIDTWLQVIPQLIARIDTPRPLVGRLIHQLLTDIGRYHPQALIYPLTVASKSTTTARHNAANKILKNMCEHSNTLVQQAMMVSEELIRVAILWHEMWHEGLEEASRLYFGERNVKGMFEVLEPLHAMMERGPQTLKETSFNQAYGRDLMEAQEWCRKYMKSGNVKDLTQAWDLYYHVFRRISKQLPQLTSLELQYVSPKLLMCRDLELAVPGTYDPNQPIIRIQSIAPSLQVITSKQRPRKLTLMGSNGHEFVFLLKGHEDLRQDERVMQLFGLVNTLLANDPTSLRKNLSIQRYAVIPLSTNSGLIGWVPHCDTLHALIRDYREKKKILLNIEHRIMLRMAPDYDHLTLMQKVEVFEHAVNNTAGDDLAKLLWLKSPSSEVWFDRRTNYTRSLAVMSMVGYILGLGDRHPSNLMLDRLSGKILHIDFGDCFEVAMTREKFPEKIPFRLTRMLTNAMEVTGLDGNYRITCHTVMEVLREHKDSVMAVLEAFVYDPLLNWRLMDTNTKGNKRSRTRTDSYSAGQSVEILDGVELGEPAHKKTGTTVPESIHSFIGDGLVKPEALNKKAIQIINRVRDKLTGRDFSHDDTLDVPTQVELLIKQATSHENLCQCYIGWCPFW

CCC1=C[C@@H]2CN(C1)Cc1c([nH]c3ccccc13)[C@@](C(=O)OC)(c1cc3c(cc1OC)N(C)[C@H]1[C@@](O)(C(=O)OC)[C@H](OC(C)=O)[C@]4(CC)C=CCN5CC[C@]31[C@@H]54)C2 (relative stereo) [vinorelbine, 3′,4′-didehydro-4′-deoxy-C′-norvincaleukoblastine [R—(R*,R*)-2,3-dihydroxybutanedioate (1:2)(salt)]]
dose limiting or most common side effect [1]: Myelosuppression

O=c1[nH]cc(F)c(=O)[nH]1 [5-fluorouracil, 5-fluoro-2,4-(1H,3H) pyrimidinedione]
dose limiting or most common side effect [1]: Myelosuppression and mucositis

C[C@H]1CN(C2CN(c3cnc4ccc(-c5ccc6oc(N)nc6c5)cc4n3)C2)CCN1 [Compound 350]
IC50 (PI3K γ (p110γ)): > 10000 nM
IC50 (PI3K δ): < 10000 nM
IC50 (PI3K β (p110β/p85α)): < 10000 nM
IC50 (mTOR): > 10000 nM
IC50 (PI3K α (p110α/p85α)): < 100 nM

Cc1cc2oc(N)nc2cc1-c1ccc2ncc(N3CC(N4CCOCC4)C3)nc2c1 [Compound 353]
IC50 (PI3K γ (p110γ)): > 10000 nM
IC50 (PI3K δ): > 10000 nM
IC50 (PI3K β (p110β/p85α)): > 10000 nM
IC50 (mTOR): > 10000 nM
IC50 (PI3K α (p110α/p85α)): < 10000 nM

Cc1nccn1C1CN(c2cnc3ccc(-c4ccc5oc(N)nc5c4)cc3n2)C1 [Compound 354]
IC50 (PI3K γ (p110γ)): < 10000 nM
IC50 (PI3K δ): < 10000 nM
IC50 (PI3K β (p110β/p85α)): < 10000 nM
IC50 (mTOR): < 10000 nM
IC50 (PI3K α (p110α/p85α)): < 100 nM

Nc1nc2cc(-c3ccc4ncc(N5CC(N6CCOCC6)C5)nc4c3)c(F)cc2o1 [Compound 373]
IC50 (PI3K γ (p110γ)): < 10000 nM
IC50 (PI3K δ): < 10000 nM
IC50 (PI3K β (p110β/p85α)): < 10000 nM
IC50 (mTOR): > 10000 nM
IC50 (PI3K α (p110α/p85α)): < 100 nM

CS(=O)(=O)N1CCN(C2CCN(c3cnc4ccc(-c5ccc6oc(N)nc6c5)cc4n3)CC2)CC1 [Compound 377]
IC50 (PI3K γ (p110γ)): < 1000 nM
IC50 (PI3K δ): < 10000 nM
IC50 (PI3K β (p110β/p85α)): < 10000 nM
IC50 (mTOR): < 10000 nM
IC50 (PI3K α (p110α/p85α)): < 100 nM

CN1CCN([C@@H]2CCN(c3cnc4ccc(-c5ccc6oc(N)nc6c5)cc4n3)C2)CC1 [Compound 379]
IC50 (PI3K γ (p110γ)): > 10000 nM
IC50 (PI3K δ): < 10000 nM
IC50 (PI3K β (p110β/p85α)): < 1000 nM
IC50 (mTOR): < 10000 nM
IC50 (PI3K α (p110α/p85α)): < 100 nM

COc1ncc(-c2ccc3ncc(C(=O)N4CCOCC4)n3c2)cc1NS(=O)(=O)c1ccc(F)cc1F [Compound 417]
IC50 (PI3K γ (p110γ)): < 100 nM
IC50 (PI3K δ): < 100 nM
IC50 (PI3K β (p110β/p85α)): < 100 nM
IC50 (mTOR): < 1000 nM
IC50 (PI3K α (p110α/p85α)): < 100 nM

O=C(c1cnc2ccc(-c3cnc(Cl)c(NS(=O)(=O)c4ccc(F)cc4F)c3)cn12)N1CCOCC1 [Compound 419]
IC50 (PI3K γ (p110γ)): < 100 nM
IC50 (PI3K δ): < 100 nM
IC50 (PI3K β (p110β/p85α)): < 100 nM
IC50 (mTOR): < 1000 nM
IC50 (PI3K α (p110α/p85α)): < 100 nM

NCC(=O)N1CCN(c2cnc3ccc(-c4ccc5oc(N)nc5c4)nc3c2)CC1 [Compound 588]
IC50 (PI3K γ (p110γ); Table 4 (PI3K α inhibitors)): < 1000 nM
IC50 (PI3K δ; Table 4 (PI3K α inhibitors)): < 1000 nM
IC50 (PI3K β (p110β/p85α); Table 4 (PI3K α inhibitors)): < 1000 nM
IC50 (mTOR; Table 4 (PI3K α inhibitors)): > 10000 nM
IC50 (PI3K α (p110α/p85α); Table 4 (PI3K α inhibitors)): < 100 nM

Nc1nc2cc(-c3ccc4ncc(N5CCN(C(=O)C6(N)CC6)CC5)nc4n3)ccc2o1 [Compound 592]
IC50 (PI3K γ (p110γ); Table 4 (PI3K α inhibitors)): < 100 nM
IC50 (PI3K δ; Table 4 (PI3K α inhibitors)): < 10000 nM
IC50 (PI3K β (p110β/p85α); Table 4 (PI3K α inhibitors)): < 10000 nM
IC50 (mTOR; Table 4 (PI3K α inhibitors)): < 10000 nM
IC50 (PI3K α (p110α/p85α); Table 4 (PI3K α inhibitors)): < 100 nM

CC(C)(N)C(=O)N1CCN(c2cnc3ccc(-c4ccc5oc(N)nc5c4)nc3c2)CC1 [Compound 594]
IC50 (PI3K γ (p110γ); Table 4 (PI3K α inhibitors)): < 1000 nM
IC50 (PI3K δ; Table 4 (PI3K α inhibitors)): < 1000 nM
IC50 (PI3K β (p110β/p85α); Table 4 (PI3K α inhibitors)): < 10000 nM
IC50 (mTOR; Table 4 (PI3K α inhibitors)): > 10000 nM
IC50 (PI3K α (p110α/p85α); Table 4 (PI3K α inhibitors)): < 100 nM

CC(C)N1CCN(c2cnc3ccc(-c4ccc5oc(N)nc5c4)nc3c2)CC1 [Compound 595]
IC50 (PI3K γ (p110γ); Table 4 (PI3K α inhibitors)): < 1000 nM
IC50 (PI3K δ; Table 4 (PI3K α inhibitors)): < 1000 nM
IC50 (PI3K β (p110β/p85α); Table 4 (PI3K α inhibitors)): < 1000 nM
IC50 (mTOR; Table 4 (PI3K α inhibitors)): > 10000 nM
IC50 (PI3K α (p110α/p85α); Table 4 (PI3K α inhibitors)): < 100 nM

CC(C)N1CCN(C2CN(c3cnc4ccc(-c5ccc6oc(N)nc6c5)nc4c3)C2)CC1 [Compound 623]
IC50 (PI3K γ (p110γ); Table 4 (PI3K α inhibitors)): < 10000 nM
IC50 (PI3K δ; Table 4 (PI3K α inhibitors)): < 1000 nM
IC50 (PI3K β (p110β/p85α); Table 4 (PI3K α inhibitors)): < 1000 nM
IC50 (mTOR; Table 4 (PI3K α inhibitors)): > 10000 nM
IC50 (PI3K α (p110α/p85α); Table 4 (PI3K α inhibitors)): < 100 nM

CN1CCN(C2CN(c3cnc4ccc(-c5ccc6oc(N)nc6c5)nc4c3)C2)CC1 [Compound 625]
IC50 (PI3K γ (p110γ); Table 4 (PI3K α inhibitors)): < 1000 nM
IC50 (PI3K δ; Table 4 (PI3K α inhibitors)): < 1000 nM
IC50 (PI3K β (p110β/p85α); Table 4 (PI3K α inhibitors)): < 1000 nM
IC50 (mTOR; Table 4 (PI3K α inhibitors)): > 10000 nM
IC50 (PI3K α (p110α/p85α); Table 4 (PI3K α inhibitors)): < 100 nM

CS(=O)(=O)OCCCCOS(C)(=O)=O [busulfan, 1,4-butanediol dimethanesulfonate]
dose limiting or most common side effect [1]: Bone marrow suppression

N.N.O=C([O-])C1(C(=O)[O-])CCC1.[Pt+2] [carboplatin, platinum, diamine [1,1-cyclobutane-dicarboxylate(2-)-O,O′]]
dose limiting or most common side effect [1]: Bone marrow suppression

O=C(O)CCCc1ccc(N(CCCl)CCCl)cc1 [chlorambucil]
dose limiting or most common side effect [1]: Bone marrow suppression

N.N.[Cl][Pt][Cl] [cisplatin, cis-diamminedichloroplatinum]
dose limiting or most common side effect [1]: nephrotoxicity, which may be controlled by hydration and diuresis, and ototoxicity

O.O=P1(N(CCCl)CCCl)NCCCO1 (centres unmarked) [cyclophosphamide, 2-[bis(2-chloroethyl)amino]tetrahydro-2H-1,3,2-oxazaphosphorine 2-oxide monohydrate]
dose limiting or most common side effect [1]: Alopecia, nausea, vomiting and leukopenia

CN(C)N=Nc1[nH]cnc1C(N)=O [dacarbazine, 5-(3,3-dimethyl-1-triazeno)-imidazole-4-carboxamide]
dose limiting or most common side effect [1]: Nausea, vomiting, and anorexia

Cc1c2oc3c(C)ccc(C(=O)N[C@@H]4C(=O)N[C@H](C(C)C)C(=O)N5CCC[C@H]5C(=O)N(C)CC(=O)N(C)[C@@H](C(C)C)C(=O)O[C@@H]4C)c3nc-2c(C(=O)N[C@@H]2C(=O)N[C@H](C(C)C)C(=O)N3CCC[C@H]3C(=O)N(C)CC(=O)N(C)[C@@H](C(C)C)C(=O)O[C@@H]2C)c(N)c1=O [dactinomycin] (I: T[dV]P[Sar][NMeV] / II: T[dV]P[Sar][NMeV]; ester I:1-I:C, II:1-II:C; linker I:N-II:N via Actinocin(9to1))
dose limiting or most common side effect [1]: Nausea, vomiting, and anorexia

COc1cccc2c1C(=O)c1c(O)c3c(c(O)c1C2=O)C[C@@](O)(C(C)=O)C[C@@H]3O[C@H]1C[C@H](N)[C@H](O)[C@H](C)O1 [daunorubicin, (8S-cis-)-8-acetyl-10-[(3-amino-2,3,6-trideoxy-α-L-lyxo-hexopyranosyl)oxy]-7,8,9,10-tetrahydro-6,8,11-trihydroxy-1-methoxy-5,12 naphthacenedione hydrochloride]
dose limiting or most common side effect [1]: Myelosuppression

CC(=O)O[C@@]12CO[C@@H]1C[C@H](O)[C@@]1(C)C(=O)[C@H](O)C3=C(C)[C@@H](OC(=O)[C@H](O)[C@@H](NC(=O)OC(C)(C)C)c4ccccc4)C[C@@](O)([C@@H](OC(=O)c4ccccc4)[C@H]21)C3(C)C [docetaxel, (2R,3S)—N-carboxy-3-phenylisoserine, N-tert-butyl ester, 13-ester with 5β-20-epoxy-1,2α,4,7β,10β,13α-hexahydroxytax-1-1-en-9-one 4-acetate 2-benzoate, trihydrate]
dose limiting or most common side effect [1]: neutropenia

COc1cccc2c1C(=O)c1c(O)c3c(c(O)c1C2=O)C[C@@](O)(C(=O)CO)C[C@@H]3O[C@H]1C[C@H](N)[C@H](O)[C@H](C)O1.Cl [doxorubicin, (8S,10S)-10-[(3-amino-2,3,6-trideoxy-α-L-lyxo-hexopyranosyl)oxy]-8-glycoloyl, 7,8,9,10-tetrahydro-6,8,11-trihydroxy-1-methoxy-5,12 naphthacenedione hydrochloride]
dose limiting or most common side effect [1]: Myelosuppression

Nc1ccn([C@@H]2O[C@H](CO)[C@@H](O)C2(F)F)c(=O)n1 [gemcitabine, 2′-deoxy-2′,2′-difluorocytidine monohydrochloride (β-isomer)]
dose limiting or most common side effect [1]: Myelosuppression, including leucopenia, thrombocytopenia, and anemia

CCc1c2c(nc3ccc(OC(=O)N4CCC(N5CCCCC5)CC4)cc13)-c1cc3c(c(=O)n1C2)COC(=O)[C@]3(O)CC [irinotecan HCl, (4S)-4,11-diethyl-4-hydroxy-9-[(4-piperidinopiperidino)carbonyloxy]-1H-pyrano[3′,4′,6,7]indolizino[1,2-b]quinoline-3,14(4H,12H)-dione hydrochloride]
dose limiting or most common side effect [1]: myelosuppression, including neutropenia, and GI effects, including diarrhea

N[C@@H](Cc1ccc(N(CCCl)CCCl)cc1)C(=O)O [melphalan, 4-[bis(2-chloroethyl)amino]-L-phenylalanine]
dose limiting or most common side effect [1]: Bone marrow suppression

O.Sc1ncnc2nc[nH]c12 [mercaptopurine, 1,7-dihydro-6H-purine-6-thione monohydrate]
dose limiting or most common side effect [1]: Myelosuppression and gastrointestinal mucositis

CN(Cc1cnc2nc(N)nc(N)c2n1)c1ccc(C(=O)N[C@@H](CCC(=O)O)C(=O)O)cc1 [methotrexate]
dose limiting or most common side effect [1]: Myelosuppression (leucopenia, thrombocytopenia, and anemia) and mucositis

COc1cc([C@@H]2c3cc4c(cc3[C@@H](O[C@@H]3O[C@@H]5CO[C@@H](c6cccs6)O[C@H]5[C@H](O)[C@H]3O)[C@H]3COC(=O)[C@H]23)OCO4)cc(OC)c1O [teniposide, 4′-demethyl-epipodophyllotoxin 9[4,6-0-(R)-thenylidene-β-D-glucopyranoside]]
dose limiting or most common side effect [1]: Myelosuppression

Nc1nc2nc[nH]c2c(=S)[nH]1 [thioguanine, 2-amino-1,7-dihydro-6H-purine-6-thione]
dose limiting or most common side effect [1]: Myelosuppression, including leucopenia, thrombocytopenia, and anemia
